Source: patent US20080206761A1, “Ex Vivo Gene Expression in Whole Blood as a Model of Assessment of Individual Variation to Dietary Supplements” (priority 2005, published 2008)

System: TNFSF15 mRNA
Assay: TNFSF15 mRNA in whole blood after dietary component and heat-aggregated IgG stimulation
Type: cell-based, human
Description: The mRNA and cDNA were prepared from the whole blood that was exposed to the dietary components, as well as the whole blood which remained unexposed. In brief, home-made 96-well filterplates were placed over collection plates, and 150 μl 5 mM Tris, pH 7.4, was applied. Following centrifugation at 120×g for 1 min at 4° C., 50 μl of blood samples were applied to each well and immediately centrifuged at 120×g for 2 min at 4° C., followed by washing of each well with 300 μl PBS once with centrifugation at 2000×g for 5 min at 4° C. Then, 60 μl stock lysis buffer, containing for example 0.5% N-Lauroylsarcosine, 4×SSC, 10 mM Tris HCl, pH 7.4, 1 mM EDTA, 0.1% IGEPAL CA-630, and 1.791 M guanidine thiocyanate, supplemented with 1% 2-mercaptoethanol (Bio Rad, Hercules, Calif., USA), 0.5 mg/ml proteinase K (Pierce, Rockford, Ill., USA), 0.1 mg/ml salmon sperm DNA (5 Prime Eppendorf/Brinkmann, Westbury, N.Y., USA), 0.1 mg/ml E. coli tRNA (Sigma), a cocktail of 10 mM each of the specific reverse primers shown in Table 2, and standard RNA34 oligonucleotides, were applied to the filterplates, followed by incubation at 37° C. for 10 min. The filterplates were then placed over oligo(dT)-immobilized microplates (GenePlate, RNAture), and centrifuged at 2000×g for 5 min at 4° C. Following overnight storage at 4° C., the microplates were washed with 100 μl plain lysis buffer 3 times, followed by 150 μl of wash buffer (0.5 M NaCl, 10 mM Tris, pH 7.4, 1 mM EDTA) 3 times at 4° C. […] The Ct was determined by analytical software (SDS, ABI).
In this embodiment, heparinized whole blood of two individuals was pre-incubated with various dietary supplements at 37° C. for 30 minutes (at the same blood concentrations as in Embodiment 2), then stimulated with 1.2 μL of heat-aggregated IgG. […] The level of TNFSF3 and TNFSF15 mRNA was then assessed using the method described in Embodiment 1, with the exception that SYBR Green PCR was used to quantitate the mRNA. […]

SMILES: CC1=C(/C=C/C(C)=C/C=C/C(C)=C/CO)C(C)(C)CCC1 [VA, vitamin A]
- effect on HAG-induced TNFSF15 expression, in words (FIG. 6, two cases, vitamin A 100 nmol/L): eliminated the effect on HAG in one case (case 1)
- baseline expression of TNFSF15, in words (FIG. 6, vitamin A 100 nmol/L): decreased the baseline expression of TNFSF-15
- effect on HAG-induced TNFSF15 expression, in words (FIG. 7 follow-up, seven cases overall, vitamin A only): exhibited an inhibitory action on HAG-induced TNFSF15 expression in case 1, and in two of seven cases overall
